Results on 16 compounds are retold here after patent publication US20240398805A1, “QUINAZOLINE DERIVED COMPOUNDS AS EGFR INHIBITORS AND THEIR USES THEREOF” (ACCUTAR BIOTECHNOLOGY INC., priority 2021, published 2024).

Common to all, as to type: cell-based
One experiment has as its system HCC827 cells. As to the kind of experiment: Cell growth inhibition (CellTiter-Glo, 3 days) in HCC827. To be noted: Homo sapiens, 72 h, 3 days after administration. The procedure, abridged:
(§1)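 HCC827 cells were plated at 5000 cells/well in RPMI with 10% FBS, and A431 cells at the same density in DMEM with 10% FBS. After overnight attachment, compounds were added at various concentrations. Luminescence was recorded after plates were equilibrated to room temperature and incubated 10 min with reagent.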

Experiment [1] has as its system HCC827-YVMA cells (human ERBB2 exon20 insertion mutant A775_G776ins YVMA). The experiment is described as follows: Cell growth inhibition (CellTiter-Glo, 3 days) in HCC827-YVMA. To be noted: 72 h, 3 days after administration. The procedure, abridged: (§2)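 HCC827 cells lentivirally transduced with codon-optimized ASV or YVMA insertion mutants were seeded at 5000 cells/well in RPMI with 10% FBS and incubated overnight. Compound was added at various concentrations from a 10× stock in medium, with 3 days' incubation. Viability read by CellTiter-Glo luminescence.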
(ATP-based viability assays read luminescence as a measure of living cells.)

Experiment [2] relates to HCC827-ASV cells (human EGFR exon 20 insertion mutant A769_D770insASV). The experiment is described as follows: Cell growth inhibition (CellTiter-Glo, 3 days) in HCC827-ASV. As to conditions: 72 h, 3 days after administration. Summed up: as §2
The subject of another experiment is A431 cells. As to the kind of experiment: Cell growth inhibition (CellTiter-Glo, 3 days) in A431. To be noted: Homo sapiens, A-431, 72 h, 3 days after administration. Summed up: as §1
Experiment [3] has as its system HCC827-SVD cells (human EGFR exon 20 insertion mutant D770_N771 insSVD). The experiment is described as follows: Cell growth inhibition (CellTiter-Glo, 3 days) in HCC827-SVD. To be noted: 72 h, 3 days after administration. Summed up:
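HCC827 cells carrying lentiviral codon-optimized EGFR D770_N771 insSVD, with endogenous EGFR knocked out by CRISPR (single clone), seeded at 5000 cells/well in RPMI with 10% FBS. Viability read by CellTiter-Glo luminescence.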

Where only a bound is given, the exact number is not on record here.

Usually GI50 stands for the concentration giving 50% growth inhibition. A high value points to less potent growth inhibition. Consider `C=CC(=O)N1CCC(Nc2cc3c(Nc4ccc(Oc5ccnc(N6C[C@H]7CCCC[C@H]7C6)c5)cc4F)ncnc3cc2OC)CC1` [Example 241, 1-(4-((4-((2-fluoro-4-((2-((3aR,7aS)-octahydro-2H-isoindol-2-yl)pyridin-4-yl)oxy)phenyl)amino)-7-methoxyquinazolin-6-yl)amino)piperidin-1-yl)prop-2-en-1-one], for which the GI50 with HCC827 cells is under 0.03 µM; in experiment [1] it was 0.06 to 0.1 µM; in experiment [2], 0.06 to 0.1 µM; in the experiment on A431 cells it was 0.6 to 1 µM; in experiment [3], 0.03 to 0.06 µM.
In the case of `C=CC(=O)N1CCC(Nc2cc3c(Nc4ccc(Oc5ccnc(N6CCCN(C)CC6)c5)cc4F)ncnc3cc2OC)CC1` [Example 242, 1-(4-((4-((2-fluoro-4-((2-(4-methyl-1,4-diazepan-1-yl)pyridin-4-yl)oxy)phenyl)amino)-7-methoxyquinazolin-6-yl)amino)piperidin-1-yl)prop-2-en-1-one], the concentration for 50% growth inhibition (GI50) is at least 1 µM in the experiment with HCC827 cells; 0.1 to 0.3 µM in experiment [1]; 0.1 to 0.3 µM in experiment [2]; at least 1 µM in the experiment with A431 cells; 0.1 to 0.3 µM in experiment [3].
For `C=CC(=O)N1CCC(Nc2cc3c(Nc4ccc(Oc5ccnc(NC6CC6)c5)cc4F)ncnc3cc2OC)CC1` [Example 244, 1-(4-((4-((4-((2-(cyclopropylamino)pyridin-4-yl)oxy)-2-fluorophenyl)amino)-7-methoxyquinazolin-6-yl)amino)piperidin-1-yl)prop-2-en-1-one], the GI50 in the experiment with HCC827 cells was under 0.03 µM; in experiment [1] it was under 0.03 µM; in experiment [2], under 0.03 µM; with A431 cells, 0.06 to 0.1 µM; in experiment [3], under 0.03 µM.
In the case of `C=CC(=O)N1CCC(Nc2cc3c(Nc4ccc(Oc5ccnc(NC(C)(C)C)c5)cc4F)ncnc3cc2OC)CC1` [Example 245, 1-(4-((4-((4-((2-(tert-butylamino)pyridin-4-yl)oxy)-2-fluorophenyl)amino)-7-methoxyquinazolin-6-yl)amino)piperidin-1-yl)prop-2-en-1-one], the GI50 in the experiment with HCC827 cells is 0.1 to 0.3 µM; in experiment [1], under 0.03 µM; in experiment [2], under 0.03 µM; with A431 cells, 0.3 to 0.6 µM; in experiment [3] it was 0.03 to 0.06 µM.
As for `C=CC(=O)N1CCC(Nc2cc3c(Nc4ccc(Oc5ccnc(NC6CCCC6)c5)cc4F)ncnc3cc2OC)CC1` [Example 246, 1-(4-((4-((4-((2-(cyclopentylamino)pyridin-4-yl)oxy)-2-fluorophenyl)amino)-7-methoxyquinazolin-6-yl)amino)piperidin-1-yl)prop-2-en-1-one], the GI50 is 0.03 to 0.06 µM in the experiment with HCC827 cells; under 0.03 µM in experiment [1]; under 0.03 µM in experiment [2]; 0.1 to 0.3 µM with A431 cells; under 0.03 µM in experiment [3].
For `C=CC(=O)N1CCC(Nc2cc3c(Nc4ccc(Oc5ccnc(N[C@H]6CCOC6)c5)cc4F)ncnc3cc2OC)CC1` [Example 247, (S)-1-(4-((4-((2-fluoro-4-((2-((tetrahydrofuran-3-yl)amino)pyridin-4-yl)oxy)phenyl)amino)-7-methoxyquinazolin-6-yl)amino)piperidin-1-yl)prop-2-en-1-one], the 50% growth inhibitory concentration (GI50) was in the range of 0.1 to 0.3 µM in the experiment on HCC827 cells; 0.03 to 0.06 µM in experiment [1]; 0.06 to 0.1 µM in experiment [2]; 0.6 to 1 µM in the experiment on A431 cells; 0.06 to 0.1 µM in experiment [3].
As for `C=CC(=O)N1CCC(Nc2cc3c(Nc4ccc(Oc5ccnc(N[C@@H]6CCOC6)c5)cc4F)ncnc3cc2OC)CC1` [Example 248, (R)-1-(4-((4-((2-fluoro-4-((2-((tetrahydrofuran-3-yl)amino)pyridin-4-yl)oxy)phenyl)amino)-7-methoxyquinazolin-6-yl)amino)piperidin-1-yl)prop-2-en-1-one], the concentration for 50% growth inhibition (GI50) was 0.06 to 0.1 µM in the experiment with HCC827 cells; 0.03 to 0.06 µM in experiment [1]; 0.03 to 0.06 µM in experiment [2]; 0.3 to 0.6 µM with A431 cells; 0.03 to 0.06 µM in experiment [3].
As for `C=CC(=O)N1CCC(Nc2cc3c(Nc4ccc(Oc5ccnc(N6CCC[C@H]6C)c5)cc4F)ncnc3cc2OC)CC1` [Example 249, (R)-1-(4-((4-((2-fluoro-4-((2-(2-methylpyrrolidin-1-yl)pyridin-4-yl)oxy)phenyl)amino)-7-methoxyquinazolin-6-yl)amino)piperidin-1-yl)prop-2-en-1-one], the GI50 in the experiment with HCC827 cells was 0.1 to 0.3 µM; in experiment [1], 0.06 to 0.1 µM; in experiment [2] it was 0.06 to 0.1 µM; in the experiment on A431 cells it was 0.6 to 1 µM; in experiment [3], 0.03 to 0.06 µM.
For the compound `C=CC(=O)N1CCC(Nc2cc3c(Nc4ccc(Oc5ccnc(N6CC[C@H](CO)C6)c5)cc4F)ncnc3cc2OC)CC1` [Example 250, (S)-1-(4-((4-((2-fluoro-4-((2-(3-(hydroxymethyl)pyrrolidin-1-yl)pyridin-4-yl)oxy)phenyl)amino)-7-methoxyquinazolin-6-yl)amino)piperidin-1-yl)prop-2-en-1-one], the 50% growth inhibitory concentration (GI50) in the experiment on HCC827 cells is 0.1 to 0.3 µM; in experiment [1], under 0.03 µM; in experiment [2], under 0.03 µM; in the experiment on A431 cells, at least 1 µM; in experiment [3] it was under 0.03 µM.
For `C=CC(=O)N1CCC(Nc2cc3c(Nc4ccc(Oc5ccnc(N6CC[C@@H](CO)C6)c5)cc4F)ncnc3cc2OC)CC1` [Example 251, (R)-1-(4-((4-((2-fluoro-4-((2-(3-(hydroxymethyl)pyrrolidin-1-yl)pyridin-4-yl)oxy)phenyl)amino)-7-methoxyquinazolin-6-yl)amino)piperidin-1-yl)prop-2-en-1-one], the GI50 in the experiment on HCC827 cells is 0.1 to 0.3 µM; in experiment [1] it was 0.03 to 0.06 µM; in experiment [2], 0.03 to 0.06 µM; with A431 cells it was 0.3 to 0.6 µM; in experiment [3] it was under 0.03 µM.
For `C=CC(=O)N1CCC(Nc2cc3c(Nc4ccc(Oc5ccnc(N6CCC[C@@H]6C)c5)cc4F)ncnc3cc2OC)CC1` [Example 252, (S)-1-(4-((4-((2-fluoro-4-((2-(2-methylpyrrolidin-1-yl)pyridin-4-yl)oxy)phenyl)amino)-7-methoxyquinazolin-6-yl)amino)piperidin-1-yl)prop-2-en-1-one], the 50% growth inhibitory concentration (GI50) in the experiment on HCC827 cells lay in the range of 0.1 to 0.3 µM; in experiment [1], 0.03 to 0.06 µM; in experiment [2], 0.03 to 0.06 µM; in the experiment on A431 cells it was 0.6 to 1 µM; in experiment [3], 0.03 to 0.06 µM.
`C=CC(=O)N1CCC(Nc2cc3c(Nc4ccc(Oc5ccnc(N6C[C@@H](F)[C@@H](F)C6)c5)cc4F)ncnc3cc2OC)CC1` [Example 253, 1-(4-((4-((4-((2-((3S,4R)-3,4-difluoropyrrolidin-1-yl)pyridin-4-yl)oxy)-2-fluorophenyl)amino)-7-methoxyquinazolin-6-yl)amino)piperidin-1-yl)prop-2-en-1-one]: the concentration for 50% growth inhibition (GI50) with HCC827 cells was in the range of 0.1 to 0.3 µM; in experiment [1], 0.03 to 0.06 µM; in experiment [2], 0.03 to 0.06 µM; in the experiment on A431 cells, 0.3 to 0.6 µM; in experiment [3], 0.03 to 0.06 µM.
Turning to `C=CC(=O)N1CCC(Nc2cc3c(Nc4ccc(Oc5ccnc(N6C[C@@H]7OCCO[C@@H]7C6)c5)cc4F)ncnc3cc2OC)CC1` [Example 254, 1-(4-((4-((2-fluoro-4-((2-((4aR,7aS)-hexahydro-6H-[1,4]dioxino[2,3-c]pyrrol-6-yl)pyridin-4-yl)oxy)phenyl)amino)-7-methoxyquinazolin-6-yl)amino)piperidin-1-yl)prop-2-en-1-one], the GI50 with HCC827 cells is 0.06 to 0.1 µM; in experiment [1], under 0.03 µM; in experiment [2] it was under 0.03 µM; with A431 cells, at least 1 µM; in experiment [3] it was under 0.03 µM.
On to `C=CC(=O)N1CCC(Nc2cc3c(Nc4ccc(Oc5ccnc(N6C[C@@H](OC)[C@H](OC)C6)c5)cc4F)ncnc3cc2OC)CC1` [Example 255, 1-(4-((4-((4-((2-((3R,4R)-3,4-dimethoxypyrrolidin-1-yl)pyridin-4-yl)oxy)-2-fluorophenyl)amino)-7-methoxyquinazolin-6-yl)amino)piperidin-1-yl)prop-2-en-1-one], for which the concentration for 50% growth inhibition (GI50) with HCC827 cells was 0.3 to 0.6 µM; in experiment [1], under 0.03 µM; in experiment [2], under 0.03 µM; in the experiment with A431 cells it was at least 1 µM; in experiment [3], under 0.03 µM.
Regarding `C=CC(=O)N1CCC(Nc2cc3c(Nc4ccc(Oc5ccnc(N6C[C@H](OC)[C@@H](OC)C6)c5)cc4F)ncnc3cc2OC)CC1` [Example 256, 1-(4-((4-((4-((2-((3S,4S)-3,4-dimethoxypyrrolidin-1-yl)pyridin-4-yl)oxy)-2-fluorophenyl)amino)-7-methoxyquinazolin-6-yl)amino)piperidin-1-yl)prop-2-en-1-one], the concentration for 50% growth inhibition (GI50) is 0.06 to 0.1 µM in the experiment with HCC827 cells; under 0.03 µM in experiment [1]; under 0.03 µM in experiment [2]; 0.1 to 0.3 µM in the experiment on A431 cells; under 0.03 µM in experiment [3].
With `C=CC(=O)N1CCC(Nc2cc3c(Nc4ccc(Oc5ccnc(N6C[C@@H]7OCCO[C@@H]7C6)n5)cc4F)ncnc3cc2OC)CC1` [Example 257, 1-(4-((4-((2-fluoro-4-((2-((4aR,7aS)-hexahydro-6H-[1,4]dioxino[2,3-c]pyrrol-6-yl)pyrimidin-4-yl)oxy)phenyl)amino)-7-methoxyquinazolin-6-yl)amino)piperidin-1-yl)prop-2-en-1-one], the GI50 in the experiment with HCC827 cells was 0.06 to 0.1 µM; in experiment [1], under 0.03 µM; in experiment [2], under 0.03 µM; with A431 cells, 0.6 to 1 µM; in experiment [3] it was under 0.03 µM.
